{
  "source": "patent US20230002631A1",
  "about": "“WATER-WASHABLE COMPOSITIONS FOR USE IN 3D PRINTING” (BASF SE, priority 2019, published 2023)",
  "origin": "cited, not measured here",
  "settings": "for Amount that dissolves in water: room temperature; for Water solubility (g/L at 20° C.): slightly water-soluble reactive diluents (B1b)",
  "note": "Like-named read-outs stand apart in the source and are kept apart here.",
  "data": [
    {"compound": "C=CC(=O)OCCOCCOCC", "note": "[2-(2-ethoxyethoxy)ethyl acrylate(EOEOA), 2-(2-ethoxyethoxy)ethyl acrylate]", "values": [
      {"measurement": "Amount that dissolves in water", "value": 13.4, "unit": "g/L"}
    ]},
    {"compound": "C=CC(=O)OCCOC(=O)NCCCC", "note": "[2-[[(butylamino)carbonyl]oxy]ethyl acrylate]", "values": [
      {"measurement": "Water solubility (g/L at 20° C.)", "setting": "20° C.", "value": 5.0, "unit": "g/L"}
    ]},
    {"compound": "C=CN1CCCCCC1=O", "note": "[N-Vinyl-caprolactam (NVC), N-Vinyl-caprolactam]", "values": [
      {"measurement": "Water solubility", "setting": "temperature not given", "value": 40, "unit": "g/L"}
    ]},
    {"compound": "C=Cn1ccnc1", "note": "[N-Vinyl-imidazole (VIM), N-Vinyl-imidazole]", "values": [
      {"measurement": "Water solubility", "setting": "stated in words", "value": "Fully miscible"}
    ]},
    {"compound": "C=CN1CCCC1=O", "note": "[N-Vinyl-pyrrolidone (NVP), N-Vinyl-pyrrolidone]", "values": [
      {"measurement": "Water solubility", "setting": "20° C.", "value": "100 g/L at 68° F. (20° C.)"}
    ]},
    {"compound": "C=C(C)C(=O)OCCOCCOCCOCCOC(=O)C(=C)C", "note": "[Tetraethylene glycol dimethacrylate]", "values": [
      {"measurement": "Water solubility", "setting": "temperature not given", "value": 12.6, "unit": "g/L"}
    ]},
    {"compound": "C=CC(=O)OCCOCCOCCOC(=O)C=C", "note": "[Triethylene glycol diacrylate (TEGDA), Triethylene glycol diacrylate]", "values": [
      {"measurement": "Water solubility", "setting": "temperature not given", "value": 18, "unit": "g/L"}
    ]},
    {"compound": "C=CC(=O)OCC1(CC)COCOC1", "note": "[cyclic trimethylolpropane formal acrylate]", "values": [
      {"measurement": "Water solubility (g/L at 20° C.)", "setting": "20° C.", "value": 9.3, "unit": "g/L"}
    ]},
    {"compound": "C=CC(=O)OCCO", "note": "[hydroxyethyl acrylate]", "values": [
      {"measurement": "Water solubility", "setting": "25° C.", "value": 100, "unit": "g/L"}
    ]},
    {"compound": "C=C(C)C(=O)OCCO", "note": "[hydroxyethyl methacrylate]", "values": [
      {"measurement": "Amount that dissolves in water", "value": 11.8, "unit": "g/L"}
    ]},
    {"compound": "C=CC(=O)OCCCO", "note": "[hydroxypropyl acrylate]", "values": [
      {"measurement": "Water solubility", "setting": "25° C.", "value": 100, "unit": "g/L"}
    ]},
    {"compound": "C=C(C)C(=O)OCCCO", "note": "[hydroxypropyl methacrylate]", "values": [
      {"measurement": "Water solubility (g/L at 20° C.)", "setting": "20° C.", "value": "<10", "unit": "g/L"}
    ]},
    {"compound": "C=C(C)C(=O)OCCOCCOCCOC(=O)C(=C)C", "note": "[triethylene glycol dimethacrylate]", "values": [
      {"measurement": "Water solubility (g/L at 20° C.)", "setting": "20° C.", "value": 3.6, "unit": "g/L"}
    ]},
    {"compound": "C=CC(=O)OCC(C)OCC(C)OCC(C)OC(=O)C=C", "note": "(centres unmarked) [tripropylene glycol diacrylate]", "values": [
      {"measurement": "Water solubility (g/L at 20° C.)", "setting": "20° C.", "value": 4.0, "unit": "g/L"}
    ]},
    {"compound": "Poly(ethylene glycol) diacrylate", "values": [
      {"measurement": "Water solubility", "setting": "temperature not given", "value": 21, "unit": "g/L"}
    ]},
    {"compound": "Polyethylene glycol (200) diacrylate", "values": [
      {"measurement": "Water solubility", "setting": "stated in words", "value": "Water soluble"}
    ]},
    {"compound": "Polyethylene glycol (400) diacrylate", "values": [
      {"measurement": "Water solubility", "setting": "stated in words", "value": "Water soluble"}
    ]}
  ]
}
